Like-named read-outs stand apart in the source and are kept apart here.
Columns and labels:
[1] = system: glycosylceramide formation in MCF-7-AdrR cells; test: Inhibition of [3H]glycosylceramide formation in MCF-7-AdrR cells (TLC, liquid scintillation); assay type: cell-based; settings: for inhibition of glycosylceramide synthesis (in words): MCF-7-AdrR cells
Experimental: FIG. 9. […] Values represent the mean of determinations from three separate experiments, and are calculated as the percent glycosylceramide in the total lipid tritium extract.
FIG. 11A and FIG. 11B. […] FIG. 11: A Autoradiography. […] For autoradiography equal aliquots by volume of total lipid extract were applied to TLC plates. […] [^3 H]Glycosylceramide, visualized in panel A, was quantitated as described in the legend to FIG. 9. Each value represents mean±SEM of determinations from three separate experiments.
FIG. 12. […] [^3 H]Glycosylceramide was quantitated as described in the legend to FIG. 9. Results represents the mean±SEM of determinations from three separate experiments.
MCF-7 cells, grown in medium containing 10% FBS, were switched to media containing 5% FBS. Cell lipids were radiolabeled by adding [^3 H]serine (2.0 μCi/ml), [^3 H]palmitic acid (1.0 μCi/ml), or [^3 H]galactose (1.0 μCi/ml) to the culture medium for the indicated times. Other radiolabels can be substituted. Cells were then rinsed twice with PBS, pH 7.4, and 2 ml of ice-cold methanol containing 2% acetic acid was added. The cells were scraped free, transferred to glass test tubes (13×100 mm), and lipids were extracted by the addition of chloroform (2 ml) followed by water (2 ml). The resulting organic lower phase was withdrawn and evaporated under a stream of nitrogen. Lipids were resuspended in 100 μL of chloroform/methanol (1:1, v/v), and aliquots were applied to TLC plates.
Lipid analysis was carried out by TLC using solvent system I: chloroform/methanol/ammonium hydroxide (40:10:1, v/v) for glycosylceramide separation, solvent system II: chloroform/methanol/water (60:40:8, v/v) for sphingoglycolipid separation, or solvent system III: chloroform/methanol/acetic acid/water (50:30:7:3, v/v) for sphingomyelin separation. For determination of ceramides, an aliquot of the chloroform-soluble lipids was base-hydrolyzed in 0.1N KOH in methanol for 1 h at 37° C., lipids were re-extracted, and separated by TLC using solvent system IV: hexane/diethyl ether/formic acid (60:40:1, v/v).
Radiochromatograms were sprayed with EN^3 HANCE, and exposed for 3-7 days for autofluorgraphy. TLC areas, aligned with bands on the autoradiographs or with iodine-stained commercial lipid standards, were scraped from the plate. Water (0.5 ml) was added to the plate scrapings followed by 4.5 ml of EcoLume counting fluid, and the samples were quantitated by liquid scintillation spectrometry.

[2] = system: glycosylation of ceramide in MCF-7-AdrR cells (UDP-glucose:ceramide glucosyltransferase); test: Glycosylation of C6-ceramide and natural glycosphingolipid synthesis, [3H]galactose labeling; assay type: cell-based; settings: for inhibition at 5 µM: 5.0 μM tamoxifen, FIG. 14B
Experimental: FIG. 14A and FIG. 14B. Effect of Tamoxifen on Ceramide Synthesis and Glycosylation in MCF-7-AdrR Cells. FIG. 14: A Influence of tamoxifen on ceramide synthesis. The experiment was conducted as described in the legend to FIG. 13. Aliquots of the total lipid extract were based-hydrolyzed as described in Example I, separated by TLC using solvent system IV, and the resolved [^3 H]ceramide was quantitated by liquid scintillation spectrometry. Results are the mean±SEM of duplicate determinations from two separate experiments. FIG. 14B: Effect of tamoxifen on glycosylation of C6 -ceramide. Cells, in 100×20 mm culture dishes, were preincubated without or with 5.0 μM tamoxifen for 30 min, followed by incubation without or with 5.0 μM C6 -ceramide:BSA (prepared at a 1:1 molar ratio) for an additional 30 min. Cells were labeled thereafter with 1.0 μCi/ml [^3 H]galactose for 24 h. [3H]Galactose uptake was determined and found to be similar in all experimental points (1.0×10^6 cpm/dish). The total extracted lipid was applied to TLC separation and [^3 H]glycosphingolipids were analyzed as described in the legend to FIG. 10. The autoradiography of a representative chromatogram is shown.
In order to explore this notion, a short-chain ceramide analog with a 6-carbon N-acyl group (C6 -ceramide), was utilized as a substrate.

Question: What does the source list for `CC/C(=C(\c1ccccc1)c1ccc(OCCN(C)C)cc1)c1ccccc1` [tamoxifen]?
Answer: inhibition at 5 µM ([1]; 5.0 μM drug, 24 h, MCF-7-AdrR, FIG. 11B, read-out: inhibition of glycosylceramide formation (cpm tritium)): 65%; IC50 ([1]; 24 h incubation with [3H]palmitic acid, FIG. 12, read-out: half-maximal inhibition (IC50) of cellular [3H]glycosylceramide formation): 1 µM; maximal inhibitory effect on glycosylceramide formation (in words) ([1]; FIG. 12): highest maximal effect; inhibition of glycosylceramide synthesis (in words) [1]: strongly inhibited; inhibition of glycosylceramide synthesis (in words) ([1]; listed as Tamoxifen): drastically inhibit; inhibition at 5 µM ([2]; 5.0 μM C6-ceramide, read-out: inhibition of conversion of C6-ceramide to C6-glycosylceramide): 54%; inhibition at 5 µM ([2]; in presence of C6-ceramide, read-out: inhibition of formation of natural glycosylceramide): 43%; inhibition of glycosylation of C6-ceramide (in words) ([2]; tamoxifen): drastically inhibited

— US5885786A, “Methods for screening of substances for inhibition of multidrug resistance” (priority 1996, dated 1999)
